In patent publication US20250186379A1, “METHODS AND AGENTS FOR DECREASING INSULIN RESISTANCE” (Whitehead Institute for Biomedical Research, priority 2021, published 2025):
Entries after “also recorded” stand apart in the source; their conditions may differ.

Legend:
[1] = tested on: reactive oxygen species (ROS); test: Quantification of ROS using a ROS-sensitive dye in HepG2 cells; format: cell-based, human
Description: Cells expressing endogenous IR tagged with GFP were treated with ROS dye (Abcam, ab186029) following the manufacturer's instructions. […] Cells were incubated at 37° C. with 5% CO2 in a humidified incubator for 30 min. Cells were imaged at 37° C. using the LSM880 Microscope with Airyscan detector with 63×objective and Zen Black software (ZEISS) at the W.M. Keck Microscopy Facility, MIT. Images were then processed using Fiji/ImageJ v2.1.0/153c. Quantification of the ROS dye fluorescence intensity per cell was performed using Fiji. Using the polygon selection tool on Fiji/ImageJ v2.1.0/153c, a polygon was drawn around a cell outline, which was identified by looking at the IR-GFP channel. The average ROS dye fluorescence intensity in the polygon (=in the cell) was determined using the measure tool on Fiji/ImageJ v2.1.0/153c. […] Cells were incubated at 37° C. with 5% CO2 in a humidified incubator for 30 minutes. Cells were imaged at 37° C. using the LSM880 Microscope with Airyscan detector with 63× objective and Zen Black software (ZEISS) at the W.M. Keck Microscopy Facility, MIT. Images were then processed using Fiji/ImageJ v2.1.0/153c. Quantification of the ROS dye fluorescence intensity per cell was performed using Fiji. […] The average ROS dye fluorescence intensity in the polygon (=in the cell) was determined using the measure tool on Fiji/ImageJ v2.1.0/153c.

[2] = tested on: IR condensates; test: Immunofluorescence for IR in human liver spheroids (primary human hepatocytes); format: cell-based; conditions: 3 nM insulin 10 min
Description: For human liver spheroid experiments, primary human hepatocytes from a donor (BioIVT; lot #SMC) were used. Cells were thawed in Cryopreserved Hepatocyte Recovery Media (CHRM, ThermoFisher), spun down at 100 g for 8 min, and resuspended in seeding medium (William's E with 5.5 mM glucose, 2 mM GlutaMax, 15 mM HEPES, 5% FBS, 1% Pen/Strep, 100 nM hydrocortisone, and insulin 200 pM or 800 pM corresponding to the proper experimental group). Spheroids were formed using custom alginate microwells. In brief, 120,000 cells were seeded per well and spun at 50 g for 2 min to seed microwells, and cultured in a volume of 300 uL seeding medium. After 24 hours, cells were switched to maintenance media for the remainder of the experiment. This maintenance media was composed of William's E plus 6.25 μg/ml transferrin, 6.25 ng/ml selenium, 0.125% fatty acid-free BSA, 20 μM linoleic acid, 5.5 mM glucose, 2 mM GlutaMax, 15 mM HEPES, 0.5% Pen/Strep, and 100 nM hydrocortisone. Insulin was supplemented with concentrations adjusted to mimic healthy and disease-inducing states, either 200 pM for physiological or 800 pM for pathologic insulin levels. Media was exchanged every 48 hours throughout the experiment. […]

CN(C)C(=N)N=C(N)N [metformin, reference compound]
ROS levels (ROS-sensitive dye) ([1]; insulin resistant HepG2 cells, 12.5 μM metformin): reduced ROS levels to those found in insulin sensitive cells; also recorded: reduced ROS levels to those found in insulin-sensitive cells
IR signal in cytoplasmic and nuclear condensates/puncta ([2]; insulin resistant human liver spheroids + metformin): partially rescued

TNFα
production of ROS ([1]; HepG2 cells (FIG. 27C), also refs 19,77-79): excessive production of ROS

insulin: insulin (Sigma Aldrich, I9278-5ML) used for acute stimulation and chronic physiological or pathological exposure
IR signal intensity in cytoplasmic and nuclear condensates/puncta ([2]; insulin sensitive human liver spheroids): leads to an increase in IR signal intensity in cytoplasmic and nuclear condensates; also recorded: produced an increase in IR signal intensity in cytoplasmic and nuclear puncta
